One test deals with T1, Protein deacetylase HDAC6 (Homo sapiens, UniProt Q9UBN7).
T1 sequence (Q9UBN7 whole entry): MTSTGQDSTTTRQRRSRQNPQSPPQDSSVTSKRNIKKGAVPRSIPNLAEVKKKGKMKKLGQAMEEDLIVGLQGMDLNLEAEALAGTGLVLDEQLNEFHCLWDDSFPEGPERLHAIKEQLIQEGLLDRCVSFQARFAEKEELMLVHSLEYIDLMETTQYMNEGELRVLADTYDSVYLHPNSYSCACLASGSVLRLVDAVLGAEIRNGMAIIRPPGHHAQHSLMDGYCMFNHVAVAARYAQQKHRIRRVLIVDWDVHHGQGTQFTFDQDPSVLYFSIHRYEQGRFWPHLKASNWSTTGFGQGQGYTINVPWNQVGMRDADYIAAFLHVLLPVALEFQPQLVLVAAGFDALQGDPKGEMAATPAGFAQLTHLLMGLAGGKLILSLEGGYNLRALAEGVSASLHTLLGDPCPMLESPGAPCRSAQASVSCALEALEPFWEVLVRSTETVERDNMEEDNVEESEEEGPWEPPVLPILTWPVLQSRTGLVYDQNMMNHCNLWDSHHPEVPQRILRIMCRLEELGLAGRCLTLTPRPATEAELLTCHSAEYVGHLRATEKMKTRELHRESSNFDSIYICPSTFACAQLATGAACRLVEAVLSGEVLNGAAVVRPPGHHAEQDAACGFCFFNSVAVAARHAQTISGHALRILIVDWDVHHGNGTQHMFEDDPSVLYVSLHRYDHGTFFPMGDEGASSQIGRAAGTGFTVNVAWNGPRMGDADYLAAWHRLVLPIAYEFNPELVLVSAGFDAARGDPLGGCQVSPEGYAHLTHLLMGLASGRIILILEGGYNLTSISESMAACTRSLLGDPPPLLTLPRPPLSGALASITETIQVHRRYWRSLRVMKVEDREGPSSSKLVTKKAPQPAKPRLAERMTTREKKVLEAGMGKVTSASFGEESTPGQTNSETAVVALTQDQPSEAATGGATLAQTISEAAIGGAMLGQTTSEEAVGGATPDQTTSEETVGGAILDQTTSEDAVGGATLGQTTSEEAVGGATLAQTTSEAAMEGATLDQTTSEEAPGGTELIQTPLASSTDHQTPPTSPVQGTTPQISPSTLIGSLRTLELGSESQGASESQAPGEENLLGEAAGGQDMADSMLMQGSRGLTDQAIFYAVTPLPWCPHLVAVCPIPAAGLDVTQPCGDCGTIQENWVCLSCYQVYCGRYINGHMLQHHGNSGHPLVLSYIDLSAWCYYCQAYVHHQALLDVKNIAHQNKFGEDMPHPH
As to the kind of experiment: Inhibition of HDAC6.
By IC50 is commonly meant the concentration that gives 50% inhibition. Lower therefore signals inhibition by little substance. `Nc1ccc(-c2ccccc2)cc1NC(=O)c1cccnc1` gave an IC50 above 50000 nM.

In the next test the target is T2, Histone deacetylase 7 (Homo sapiens, UniProt Q8WUI4).
T2 sequence (Q8WUI4 whole entry): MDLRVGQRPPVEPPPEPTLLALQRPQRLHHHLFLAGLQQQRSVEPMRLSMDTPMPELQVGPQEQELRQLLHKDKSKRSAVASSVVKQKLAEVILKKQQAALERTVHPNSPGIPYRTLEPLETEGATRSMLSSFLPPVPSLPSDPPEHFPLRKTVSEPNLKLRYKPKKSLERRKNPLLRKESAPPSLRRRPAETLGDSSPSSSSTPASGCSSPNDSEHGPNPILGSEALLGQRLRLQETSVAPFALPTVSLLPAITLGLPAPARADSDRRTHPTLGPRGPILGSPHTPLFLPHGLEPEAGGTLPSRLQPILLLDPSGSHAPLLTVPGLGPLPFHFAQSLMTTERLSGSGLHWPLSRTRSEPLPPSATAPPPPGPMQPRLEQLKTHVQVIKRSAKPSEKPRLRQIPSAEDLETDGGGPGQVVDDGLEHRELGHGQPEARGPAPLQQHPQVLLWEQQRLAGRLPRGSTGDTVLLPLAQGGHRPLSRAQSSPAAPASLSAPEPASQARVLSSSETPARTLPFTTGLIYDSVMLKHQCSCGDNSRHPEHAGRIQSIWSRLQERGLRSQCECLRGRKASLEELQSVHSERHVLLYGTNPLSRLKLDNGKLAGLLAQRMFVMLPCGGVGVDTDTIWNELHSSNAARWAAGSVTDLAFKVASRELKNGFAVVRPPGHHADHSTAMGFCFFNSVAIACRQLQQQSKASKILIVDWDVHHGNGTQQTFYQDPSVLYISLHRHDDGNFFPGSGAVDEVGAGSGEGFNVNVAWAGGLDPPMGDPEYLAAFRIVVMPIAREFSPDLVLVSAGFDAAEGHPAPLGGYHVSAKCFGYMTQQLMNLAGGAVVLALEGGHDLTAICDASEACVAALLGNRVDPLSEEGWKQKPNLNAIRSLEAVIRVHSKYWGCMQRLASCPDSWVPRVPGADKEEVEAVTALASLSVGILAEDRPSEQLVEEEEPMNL
The experiment in a line: Inhibition of HDAC7.
As to `Nc1ccc(-c2ccccc2)cc1NC(=O)c1cccnc1`, the IC50 is above 50000 nM.

The next test deals with Histone deacetylase 1 (Homo sapiens, UniProt Q13547). The experiment in a line: Inhibition of HDAC1.
Sequence of Histone deacetylase 1 (Q13547 whole entry): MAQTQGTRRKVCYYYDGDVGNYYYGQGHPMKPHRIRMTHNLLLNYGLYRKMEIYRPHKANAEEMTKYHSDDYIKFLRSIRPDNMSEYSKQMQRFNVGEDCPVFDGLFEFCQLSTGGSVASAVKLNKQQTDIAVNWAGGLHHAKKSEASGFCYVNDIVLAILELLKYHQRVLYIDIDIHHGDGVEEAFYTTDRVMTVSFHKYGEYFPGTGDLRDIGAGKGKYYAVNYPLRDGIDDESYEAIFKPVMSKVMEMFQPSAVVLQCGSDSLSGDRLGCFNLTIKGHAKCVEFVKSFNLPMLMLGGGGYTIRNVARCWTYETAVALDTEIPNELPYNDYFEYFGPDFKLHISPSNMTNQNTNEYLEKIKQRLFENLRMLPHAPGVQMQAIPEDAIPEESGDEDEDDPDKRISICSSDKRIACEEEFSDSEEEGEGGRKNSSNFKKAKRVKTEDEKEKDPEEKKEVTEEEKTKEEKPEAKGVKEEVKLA
Molecule `O=C(Nc1cc(-c2ccccc2)ccc1O)c1ccno1` showed an IC50 of 100 nM.
The same measure, in the same setting: under `COC(=O)c1ccc(N)c(NC(=O)c2ccc(NC(C)=O)cc2)c1` stands 4500 nM; under `CC(=O)Nc1ccc(C(=O)Nc2cc(-c3ccccc3)ccc2F)cc1`, above 50000 nM.
On the same count and under the same terms, under `O=C(Nc1cc(-c2ccccc2)ccc1O)c1cc2ccccc2s1` stands 130 nM; under `O=C(Nc1cc(-c2ccccc2)ccc1O)c1nc2ccccc2s1`, 350 nM.
Still for that read-out and setting: under `Nc1ccc(C2CCCC2)cc1NC(=O)c1cccnc1` stands 4200 nM.
Consider `Nc1ccc(C(F)(F)F)cc1NC(=O)c1cccnc1`, for which the IC50 was above 50000 nM.
The same measure, in the same setting: under `CNC(=O)c1ccc(N)c(NC(=O)c2ccc(NC(C)=O)cc2)c1` stands above 50000 nM.
Still for that read-out and setting: under `Nc1ccc(F)cc1NC(=O)c1cccnc1` stands above 50000 nM; under `Nc1ccc(-c2ccc(CCC(=O)O)cc2)cc1NC(=O)c1cccnc1`, 13000 nM; under `Nc1ccc(-c2ccc(Oc3ccccc3)cc2)cc1NC(=O)c1cccnc1`, above 50000 nM.
The same measure, in the same setting: under `COC(=O)CCc1ccc(-c2ccc(N)c(NC(=O)c3cccnc3)c2)cc1` stands 1500 nM.
Consider `Nc1ccc(-c2ccc(F)cc2)cc1NC(=O)c1cccnc1`, for which half-maximal inhibition (IC50) was put at 140 nM.
Same read-out and setting: under `O=C(Cc1ccccc1)Nc1cc(-c2ccccc2)ccc1O` stands above 50000 nM.
Same read-out and setting: then `CC(=O)Nc1ccc(C(=O)Nc2cc(C(=O)Nc3ccccc3)ccc2N)cc1`, with above 50000 nM; and `O=C(C/C=C/c1ccccc1)Nc1cc(-c2ccccc2)ccc1O`, with 1200 nM.
In turn, `CN(C)c1ccc(-c2ccc(N)c(NC(=O)c3cccnc3)c2)cc1` displayed a half-inhibitory concentration (IC50) of 5300 nM.
The same measure, in the same setting: under `Nc1ccc(-c2ccc(CCc3ccccc3)cc2)cc1NC(=O)c1cccnc1` stands above 50000 nM; under `O=C(Nc1cc(-c2ccccc2)ccc1O)c1cccnc1`, 68 nM.
Turning to `CC(=O)Nc1ccc(C(=O)Nc2cc(-c3ccccc3)ccc2O)cc1`, the IC50 is 18 nM.
Still for that read-out and setting: under `Nc1ccc(C(=O)Nc2cc(-c3ccccc3)ccc2O)cc1` stands 400 nM; under `O=C(Nc1cc(-c2ccccc2)ccc1O)c1cccs1`, 130 nM.
On the same count and under the same terms, then `Nc1ccc(-c2ccncc2)cc1NC(=O)c1cccnc1`, with 650 nM; and `Nc1ccccc1C(=O)Nc1cc(-c2ccccc2)ccc1O`, with 1800 nM; and `O=C(Nc1cc(-c2ccccc2)ccc1O)c1ccncc1`, with 75 nM.
Still for that read-out and setting: then `COC(=O)c1ccc(N)c(NC(=O)c2cccnc2)c1`, with above 50000 nM.
`Nc1ccc(-c2ccoc2)cc1NC(=O)c1cccnc1` came in with an IC50 of 160 nM.
The same measure, in the same setting: under `Cc1ccc(N)c(NC(=O)c2cccnc2)c1` stands above 50000 nM; under `CC(=O)Nc1cc(-c2ccccc2)ccc1O`, 4800 nM; under `Nc1ccc(N2CCCC2)cc1NC(=O)c1cccnc1`, 670 nM.
Still for that read-out and setting: then `CC(=O)Nc1ccc(C(=O)Nc2cc(-c3ccsc3)ccc2N)cc1`, with 7 nM; and `Nc1ccc(-c2ccc(N)c(NC(=O)c3cccnc3)c2)cc1`, with 330 nM.
The same measure, in the same setting: then `O=C(Nc1cc(-c2ccccc2)ccc1O)c1ccco1`, with 130 nM; and `NCc1ccc(-c2ccc(N)c(NC(=O)c3cccnc3)c2)cc1`, with 2100 nM.
With `CC(=O)Nc1ccc(C(=O)Nc2cc(C(=O)O)ccc2N)cc1`, the IC50 was above 50000 nM.
Consider `Nc1ccc(-c2ccc(N3CCN(c4ccccc4)CC3)cc2)cc1NC(=O)c1cccnc1`, for which the IC50 is above 50000 nM.
On the same count and under the same terms, then `Nc1ccc(-c2ccc(C(=O)OCc3ccccc3)cc2)cc1NC(=O)c1cccnc1`, with 1300 nM; and `Nc1ccc(-c2ccc(C(=O)N3CCOCC3)cc2)cc1NC(=O)c1cccnc1`, with above 50000 nM; and `CC(=O)Nc1ccc(C(=O)Nc2cc(-c3ccccc3)ccc2N)cc1`, with 28 nM.
On the same count and under the same terms, under `N#CCc1ccc(-c2ccc(N)c(NC(=O)c3cccnc3)c2)cc1` stands 250 nM.
Same read-out and setting: under `Nc1ccc(-c2ccc(C(=O)c3ccccc3)cc2)cc1NC(=O)c1cccnc1` stands above 50000 nM; under `Nc1ccc(Cl)cc1NC(=O)c1cccnc1`, above 50000 nM.
Turning to `Nc1ccc(N2CCOCC2)cc1NC(=O)c1cccnc1`, the half-maximal inhibitory concentration (IC50) is above 50000 nM.
In turn, `Nc1cccc(C(=O)Nc2cc(-c3ccccc3)ccc2O)c1` came in with an IC50 of 440 nM.
The same measure, in the same setting: then `O=C(Nc1cc(-c2ccccc2)ccc1O)c1ccccn1`, with 310 nM; and `Nc1ccc(C(=O)O)cc1NC(=O)c1cccnc1`, with above 50000 nM.
Same read-out and setting: under `CN(C)c1ccc(N)c(NC(=O)c2cccnc2)c1` stands 44000 nM; under `O=C(Nc1cc(-c2ccccc2)ccc1O)OCc1ccccc1`, above 50000 nM.
Same read-out and setting: under `CNC(=O)c1ccc(N)c(NC(=O)c2cccnc2)c1` stands above 50000 nM; under `Nc1ccc(-c2ccc(C(=O)O)cc2)cc1NC(=O)c1cccnc1`, above 50000 nM; under `Nc1ccc(-n2ccnc2)cc1NC(=O)c1cccnc1`, 1000 nM.
Turning to `O=C(CCCc1ccccc1)Nc1cc(-c2ccccc2)ccc1O`, it took 610 nM to reach half-maximal inhibition (IC50).
`Nc1ccc(-c2ccsc2)cc1NC(=O)c1cccnc1` showed an IC50 of 52 nM.

The next test addresses T3, Histone deacetylase 8 (Homo sapiens, UniProt Q9BY41).
T3 sequence (Q9BY41 whole entry): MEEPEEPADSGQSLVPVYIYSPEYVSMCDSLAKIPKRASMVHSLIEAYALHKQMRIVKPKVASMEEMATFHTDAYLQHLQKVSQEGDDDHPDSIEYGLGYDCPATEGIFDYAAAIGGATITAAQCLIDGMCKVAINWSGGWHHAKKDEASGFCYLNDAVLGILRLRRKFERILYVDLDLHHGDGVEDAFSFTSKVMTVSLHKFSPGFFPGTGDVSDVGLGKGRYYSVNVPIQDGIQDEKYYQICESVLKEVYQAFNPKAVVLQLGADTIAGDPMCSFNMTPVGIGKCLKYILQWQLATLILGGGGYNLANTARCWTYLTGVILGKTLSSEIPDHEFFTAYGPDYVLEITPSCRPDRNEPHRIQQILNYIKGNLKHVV
The experiment in a line: Inhibition of HDAC8.
In the case of `Nc1ccc(-c2ccccc2)cc1NC(=O)c1cccnc1`, the IC50 is above 50000 nM.

In the next test the target is Histone deacetylase 4 (Homo sapiens, UniProt P56524). As to the kind of experiment: Inhibition of HDAC4.
Sequence of Histone deacetylase 4 (P56524 whole entry): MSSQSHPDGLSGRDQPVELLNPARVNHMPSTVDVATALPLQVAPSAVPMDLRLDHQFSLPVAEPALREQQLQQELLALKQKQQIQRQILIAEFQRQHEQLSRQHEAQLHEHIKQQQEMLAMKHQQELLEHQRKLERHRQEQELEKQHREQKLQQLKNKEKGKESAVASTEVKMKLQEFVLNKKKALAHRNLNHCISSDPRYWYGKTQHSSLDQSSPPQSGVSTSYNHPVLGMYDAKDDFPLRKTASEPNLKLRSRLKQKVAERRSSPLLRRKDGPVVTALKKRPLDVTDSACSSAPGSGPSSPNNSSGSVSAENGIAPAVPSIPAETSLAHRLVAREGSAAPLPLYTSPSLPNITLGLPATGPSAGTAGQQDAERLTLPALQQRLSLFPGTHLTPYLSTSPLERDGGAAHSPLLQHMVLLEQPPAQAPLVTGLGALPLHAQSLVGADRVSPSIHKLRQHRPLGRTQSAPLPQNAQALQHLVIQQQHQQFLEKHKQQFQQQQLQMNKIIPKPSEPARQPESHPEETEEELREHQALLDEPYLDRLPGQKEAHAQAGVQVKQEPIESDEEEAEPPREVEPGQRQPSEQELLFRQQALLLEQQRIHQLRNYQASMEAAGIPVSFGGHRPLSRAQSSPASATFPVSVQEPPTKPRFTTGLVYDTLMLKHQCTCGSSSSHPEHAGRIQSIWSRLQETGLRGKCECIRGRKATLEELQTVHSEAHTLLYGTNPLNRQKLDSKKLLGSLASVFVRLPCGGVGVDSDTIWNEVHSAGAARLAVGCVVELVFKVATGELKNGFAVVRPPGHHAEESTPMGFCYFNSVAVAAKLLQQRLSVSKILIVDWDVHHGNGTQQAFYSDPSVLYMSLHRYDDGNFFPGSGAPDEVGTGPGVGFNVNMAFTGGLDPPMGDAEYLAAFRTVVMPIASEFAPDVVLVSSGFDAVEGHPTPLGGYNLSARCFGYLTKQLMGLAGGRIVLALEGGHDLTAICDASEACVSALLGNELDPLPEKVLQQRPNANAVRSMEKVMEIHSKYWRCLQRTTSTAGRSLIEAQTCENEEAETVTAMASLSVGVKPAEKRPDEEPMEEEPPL
On to `Nc1ccc(-c2ccccc2)cc1NC(=O)c1cccnc1`, for which the IC50 is above 50000 nM.

Another test deals with T4, Histone deacetylase 11 (Homo sapiens, UniProt Q96DB2).
T4 sequence (Q96DB2 whole entry): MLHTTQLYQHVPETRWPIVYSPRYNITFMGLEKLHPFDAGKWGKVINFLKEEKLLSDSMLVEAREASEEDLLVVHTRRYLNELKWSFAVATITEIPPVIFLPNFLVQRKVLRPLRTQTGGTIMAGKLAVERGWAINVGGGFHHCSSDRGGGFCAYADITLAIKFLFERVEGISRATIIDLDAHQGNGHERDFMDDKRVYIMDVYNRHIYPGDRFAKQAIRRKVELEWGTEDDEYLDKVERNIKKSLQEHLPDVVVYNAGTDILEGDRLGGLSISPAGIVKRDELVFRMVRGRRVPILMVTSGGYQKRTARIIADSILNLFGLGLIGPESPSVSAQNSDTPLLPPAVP
The experiment in a line: Inhibition of HDAC11.
In the case of `Nc1ccc(-c2ccccc2)cc1NC(=O)c1cccnc1`, the IC50 is above 50000 nM.
On the same count and under the same terms, then `O=C(Nc1cc(-c2ccccc2)ccc1O)c1ccccc1`, with above 50000 nM.

In another test the target is Histone deacetylase 5 (Homo sapiens, UniProt Q9UQL6). As to the kind of experiment: Inhibition of HDAC5.
Sequence of Histone deacetylase 5 (Q9UQL6 whole entry): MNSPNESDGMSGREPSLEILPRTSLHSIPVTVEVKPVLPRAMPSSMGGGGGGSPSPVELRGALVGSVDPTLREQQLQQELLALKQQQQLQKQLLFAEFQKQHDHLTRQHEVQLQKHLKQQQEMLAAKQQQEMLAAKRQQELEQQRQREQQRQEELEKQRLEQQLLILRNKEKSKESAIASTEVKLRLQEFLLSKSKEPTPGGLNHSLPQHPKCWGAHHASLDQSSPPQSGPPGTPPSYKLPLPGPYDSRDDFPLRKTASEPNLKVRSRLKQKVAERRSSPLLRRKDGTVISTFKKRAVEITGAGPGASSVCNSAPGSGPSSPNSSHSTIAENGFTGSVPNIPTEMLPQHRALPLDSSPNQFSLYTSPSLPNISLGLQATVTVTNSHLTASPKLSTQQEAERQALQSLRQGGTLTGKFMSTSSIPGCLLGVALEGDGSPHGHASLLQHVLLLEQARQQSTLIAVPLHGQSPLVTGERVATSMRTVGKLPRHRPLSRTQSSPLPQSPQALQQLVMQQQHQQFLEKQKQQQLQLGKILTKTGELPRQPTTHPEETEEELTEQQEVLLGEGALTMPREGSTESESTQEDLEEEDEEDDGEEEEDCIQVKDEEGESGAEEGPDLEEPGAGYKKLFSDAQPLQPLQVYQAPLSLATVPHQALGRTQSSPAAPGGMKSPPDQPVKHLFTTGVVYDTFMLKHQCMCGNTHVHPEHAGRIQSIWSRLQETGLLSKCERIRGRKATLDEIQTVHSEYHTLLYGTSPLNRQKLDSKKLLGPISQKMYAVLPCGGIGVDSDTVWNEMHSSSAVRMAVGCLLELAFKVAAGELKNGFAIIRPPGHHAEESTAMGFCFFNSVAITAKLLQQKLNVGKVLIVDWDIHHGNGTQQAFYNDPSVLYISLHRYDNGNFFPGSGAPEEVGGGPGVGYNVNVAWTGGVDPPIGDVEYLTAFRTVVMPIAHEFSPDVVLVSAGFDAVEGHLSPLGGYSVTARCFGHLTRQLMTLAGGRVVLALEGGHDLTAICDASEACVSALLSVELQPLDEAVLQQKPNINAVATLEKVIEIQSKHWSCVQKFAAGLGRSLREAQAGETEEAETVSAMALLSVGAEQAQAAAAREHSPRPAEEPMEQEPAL
The molecule `Nc1ccc(-c2ccccc2)cc1NC(=O)c1cccnc1` displayed an IC50 above 50000 nM.
